Results as given in paper PMC11844072, “Novel 5,6-dichlorobenzimidazole derivatives as dual BRAFWT and BRAFV600E inhibitors: design, synthesis, anti-cancer activity and molecular dynamics simulations” (BMC Chemistry, 2025).

Tests used:
PC-3 = experiment: NCI 60 single concentration growth inhibition; assay type: cell-based, human; conditions: Homo sapiens, PC-3, Prostate cancer, read-out: GI%
Summary of the method: (§1)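 Single-dose screen: cells in RPMI 1640 with 5% FBS and 2 mM L-glutamine, pre-grown 24 h, then exposed to 10 µM compound for 48 h at 37 °C. Protein was measured by TCA fixation and sulforhodamine B staining at 515 nm, and percent growth was taken against time-zero and untreated wells.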

SF-539 = experiment: NCI 60 single concentration growth inhibition; assay type: cell-based, human; conditions: Homo sapiens, SF-539, CNS cancer, read-out: GI%
Summary of the method: as §1

ACHN = experiment: NCI 60 single concentration growth inhibition; assay type: cell-based, human; conditions: Homo sapiens, Renal cancer, read-out: GI%
Summary of the method: as §1

EKVX = experiment: NCI 60 single concentration growth inhibition; assay type: cell-based, human; conditions: Homo sapiens, Non-small cell lung cancer, read-out: GI%
Summary of the method: as §1

HOP-62 = experiment: NCI 60 single concentration growth inhibition; assay type: cell-based, human; conditions: Homo sapiens, HOP-62, Non-small cell lung cancer, read-out: GI%
Summary of the method: as §1

SF-295 = experiment: NCI 60 single concentration growth inhibition; assay type: cell-based, human; conditions: Homo sapiens, SF-295, CNS cancer, read-out: GI%
Summary of the method: as §1

786-0 = experiment: NCI 60 single concentration growth inhibition; assay type: cell-based, human; conditions: Homo sapiens, 786-0, Renal cancer, read-out: GI%
Summary of the method: as §1

NCI-H226 = experiment: NCI 60 single concentration growth inhibition; assay type: cell-based, human; conditions: Homo sapiens, NCI-H226, Non-small cell lung cancer, read-out: GI%
Summary of the method: as §1

SK-MEL-28 = experiment: NCI 60 single concentration growth inhibition; assay type: cell-based, human; conditions: Homo sapiens, SK-MEL-28, Melanoma, read-out: GI%
Summary of the method: as §1

A549/ATCC = experiment: NCI 60 single concentration growth inhibition; assay type: cell-based, human; conditions: Homo sapiens, Non-small cell lung cancer, read-out: GI%
Summary of the method: as §1

OVCAR-8 = experiment: NCI 60 single concentration growth inhibition; assay type: cell-based, human; conditions: Homo sapiens, OVCAR-8, Ovarian cancer, read-out: GI%
Summary of the method: as §1

A498 = experiment: NCI 60 single concentration growth inhibition; assay type: cell-based, human; conditions: Homo sapiens, A498, Renal cancer, read-out: GI%
Summary of the method: as §1

MCF7 = experiment: NCI 60 single concentration growth inhibition; assay type: cell-based, human; conditions: Homo sapiens, MCF7, Breast cancer, read-out: GI%
Summary of the method: as §1

SN12C = experiment: NCI 60 single concentration growth inhibition; assay type: cell-based, human; conditions: Homo sapiens, Renal cancer, read-out: GI%
Summary of the method: as §1

SK-OV-3 = experiment: NCI 60 single concentration growth inhibition; assay type: cell-based, human; conditions: Homo sapiens, SK-OV-3, Ovarian cancer, read-out: GI%
Summary of the method: as §1

SR = experiment: NCI 60 single concentration growth inhibition; assay type: cell-based, human; conditions: Homo sapiens, Leukemia, read-out: GI%
Summary of the method: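 One-concentration growth inhibition used 10 µM over 48 h in RPMI 1640/5% FBS, with sulforhodamine B protein staining as the end point. Percent growth is expressed relative to untreated control cells.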

[1] = tested on: NCI 60 cancer cell line panel; experiment: NCI 60 single concentration growth inhibition, panel mean; assay type: cell-based; conditions: Homo sapiens, mean over NCI 60 panel, read-out: Mean GI%
Description: The synthesized dichlorobenzimidazoles 10a–p were assayed for their influence on divers cancer cell lines according to the method presented in the Additional file A.
5. Screening of cytotoxic activity against a panel of sixty human tumor cell lines
The selected compounds by NCI were evaluated for their anticancer activity in a two-stage process. First, these compounds were screened against the full NCI 60 cell lines panel at a single high dose of 10 µM. Then, the output from the single dose screen is reported as a mean graph. […]
at five different minimal concentrations.
Assay protocol. The human tumor cell lines of the cancer screening panel are grown in RPMI 1640 medium containing 5% fetal bovine serum and 2 mM L-glutamine. For a typical screening experiment, cells are inoculated into 96 well microtiter plates in 100 µL at plating densities ranging from 5000 to 40,000 cells/well depending on the doubling time of individual cell lines. After cell inoculation, the microtiter plates are incubated at 37 °C, 5% CO 2, 95% air and 100% relative humidity for 24 h prior to addition of the experimental drugs.
After 24 h, two plates of each cell line are fixed in situ with TCA, to represent a measurement of the cell population for each cell line at the time of drug addition (Tz). The experimental drugs are solubilized in dimethyl sulfoxide at 400-fold the desired final maximum test concentration and stored frozen prior to use. At the time of drug addition, an aliquot of frozen concentrate is thawed and diluted to twice the desired final maximum test concentration with complete medium containing 50 µg/mL gentamicin. Additional four, 10-fold or ½ log serial dilutions are made to provide a total of five drug concentrations plus control.
Aliquots of […] of these different drug dilutions are added to the appropriate microtiter wells already containing […] of medium, resulting in the required final drug concentrations.
Following drug addition, the plates are incubated for an additional 48 h at 37 °C, 5% CO 2, 95% air, and 100% relative humidity. For adherent cells, the assay is terminated by the addition of cold TCA.
Cells are fixed in situ by the gentle addition of 50 µL of cold 50% (w/v) TCA (final concentration, 10% TCA) and incubated for 60 min at 4 °C. The supernatant is discarded, and the plates are washed five times with tap water and air dried. Sulforhodamine B (SRB) solution ([…]) at 0.4% (w/v) in 1% acetic acid is added to each well, and plates are incubated for 10 min at room temperature. After staining, unbound dye is removed by washing five times with 1% acetic acid and the plates are air dried. Bound stain is subsequently solubilized with 10 mM trizma base, and the absorbance is read on an automated plate reader at a wavelength of 515 nm. For suspension cells, the methodology is […]
the same except that the assay is terminated by fixing settled cells at the bottom of the wells by gently adding 50 µl of 80% TCA (final concentration, 16% TCA). Using the seven absorbance measurements [time zero, (Tz), control growth, (C), and test growth in the presence of drug at the five concentration levels (Ti)], the percentage growth is calculated at each of the drug concentrations […]
Percentage growth inhibition is calculated as: [(Ti Tz)/(C–Tz)] x 100 for concentrations for which Ti>/=Tz and [(Ti-Tz)/Tz] x 100 for concentrations for which Ti < Tz.
Three dose response parameters are calculated for each experimental agent. Growth […]
concentration resulting in a 50% reduction in the net protein increase (as measured by SRB staining) in control cells during the drug incubation. The drug concentration resulting in total growth inhibition (TGI) is calculated from Ti = Tz. […]
reduction in the measured protein at the end of the drug treatment as compared to that at the beginning) indicating a net loss of cells following treatment is calculated from [(Ti–Tz)/Tz] x 100 =
_50. Values are calculated for each of these three parameters if the level of activity is reached; […]

Row | Compound | inhibition at 10 µM (PC-3) [%] | inhibition at 10 µM (SF-539) [%] | inhibition at 10 µM (ACHN) [%] | inhibition at 10 µM (EKVX) [%] | inhibition at 10 µM (HOP-62) [%] | inhibition at 10 µM (SF-295) [%] | inhibition at 10 µM (786-0) [%] | inhibition at 10 µM (NCI-H226) [%] | inhibition at 10 µM (SK-MEL-28) [%] | inhibition at 10 µM (A549/ATCC) [%] | inhibition at 10 µM (OVCAR-8) [%] | inhibition at 10 µM (A498) [%] | inhibition at 10 µM (MCF7) [%] | inhibition at 10 µM (SN12C) [%] | inhibition at 10 µM (SK-OV-3) [%] | inhibition at 10 µM (SR) [%] | inhibition at 10 µM [1] [%]
1 | COC(=O)COc1cc(C=NNC(=O)Cn2c(-c3ccc(OC)cc3)nc3cc(Cl)c(Cl)cc32)ccc1OC [Compound 10o, Methyl-2-(5-((2-(2-(5,6-dichloro-2-(4-methoxyphenyl)-1H-benzo[d]imidazol-1-yl)acetyl)hydrazono)methyl)-2-methoxyphenoxy)acetate] | 51.2 | 80 | 71.3 | 14 | < 5 | < 5 | 11.9 | 10.2 | < 5 | 8.33 | 69.8 | < 5 | 33.4 | 97.2 | 24.1 | 90.9 | 34.6
2 | COC(=O)COc1ccc(C=NNC(=O)Cn2c(-c3ccc(OC)cc3)nc3cc(Cl)c(Cl)cc32)cc1OC [Compound 10p, Methyl-2-(4-((2-(2-(5,6-dichloro-2-(4-methoxyphenyl)-1H-benzo[d]imidazol-1-yl)acetyl)hydrazono)methyl)-2-methoxyphenoxy)acetate] | 79.8 | 101 | 95.2 | 18.9 | < 5 | < 5 | 162 | < 5 | 6.03 | < 5 | 143 | < 5 | 25.8 | 99.5 | < 5 | 92.8 | 37.6
